Earlier results, collected in US5849733A, “2-thio or 2-oxo flavopiridol analogs” (Bristol-Myers Squibb Co., priority 1997, dated 1998).

System: apoptosis
Conditions: J. Cell Sci., 108, 2897 (1995)

Cn1cnc2c(NCc3ccccc3)nc(NCCO)nc21 [olomucine]
synergy with known cytotoxic agents in inducing apoptosis: act synergistically with known cytotoxic agents in inducing apoptosis
